Our source for the B-score binding assay, B-score functional assay and Ranking score values is paper PMC5681660, “Reduced hepatitis B and D viral entry using clinically applied drugs as novel inhibitors of the bile acid transporter NTCP” (Scientific Reports, 2017).

The target in experiment [1] is T1, human NTCP (Homo sapiens, UniProt Q14973).
T1 sequence (Q14973 1-349): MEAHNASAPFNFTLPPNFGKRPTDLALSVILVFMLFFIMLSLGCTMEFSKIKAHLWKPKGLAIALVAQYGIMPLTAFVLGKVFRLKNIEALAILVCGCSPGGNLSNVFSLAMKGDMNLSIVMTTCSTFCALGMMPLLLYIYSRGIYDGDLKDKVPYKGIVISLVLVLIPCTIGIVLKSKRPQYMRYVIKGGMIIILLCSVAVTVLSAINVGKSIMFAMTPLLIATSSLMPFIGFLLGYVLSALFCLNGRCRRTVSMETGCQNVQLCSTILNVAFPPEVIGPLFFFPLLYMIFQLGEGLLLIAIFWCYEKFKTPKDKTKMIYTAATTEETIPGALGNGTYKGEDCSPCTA
Description: Screening fluorescent competitive Myrcludex B-FITC binding assay (96-well, 10 µM drug).

The target in experiment [2] is T1, human NTCP. In words: Screening taurocholate uptake assay (96-well, [14C]taurocholate, 10 µM drug).
Where [3] appears, read: Prestwick library screen, 10 µM drug, B-score of Myrcludex B-FITC binding.
Where [4] appears, read: Prestwick library screen, 10 µM drug, B-score of taurocholate uptake.
Where [5] appears, read: combined ranking from functional and binding assay B-scores.
Setting [6] is: screen, 10 µM drug, Myrcludex B-FITC binding.
Setting [7] is: combined ranking from functional and binding screening assays.
The mark [8] stands for this setting: screen, 10 µM drug, taurocholate uptake.
[9] abbreviates: Prestwick library screen, Myrcludex B-FITC binding, 10 µM drug.
Setting [10] is: Prestwick library screen, taurocholate uptake, 10 µM drug.
Setting [11] is: ranking score beside the functional and binding assay B-scores of the screen.

Counter-ions that a name gives are not always drawn. Like-named read-outs stand apart in the source and are kept apart here.

`CCN(CC)C(=O)C1(c2ccccc2)CC1CN.Cl` (stereo not drawn) [Milnacipran hydrochloride]: in experiment [1] (setting [3]), the B-score binding assay is 0.152. This molecule showed a B-score functional assay in experiment [2] (setting [4]) of 1.822. Moreover, in experiment [2] (setting [5]), the Ranking score was found to be 955.465.
`CC(C)Cn1cnc2c(N)nc3ccccc3c21` [Imiquimod]: the B-score binding assay in experiment [1] is recorded as -0.174. In experiment [2], this molecule showed a B-score functional assay of -0.019 and a Ranking score of 554.076.
Molecule `COc1ccc(CN2CCN(C(c3ccc(F)cc3)c3ccc(F)cc3)CC2)c(OC)c1OC.Cl.Cl` [Lomerizine hydrochloride] displayed a B-score binding assay in experiment [1] (setting [6]) of -1.084. Further, in experiment [2] (setting [7]), the Ranking score was determined as 328.713. For the same molecule, the B-score functional assay in experiment [2] (setting [8]) is listed as -0.214.
Molecule `Cl.O=C(OCC(O)CO)c1ccccc1Nc1ccnc2cc(Cl)ccc12` (stereo not drawn) [Glafenine hydrochloride] came in with a B-score binding assay in experiment [1] (setting [3]) of 3.077. Further, in experiment [2] (setting [4]), the B-score functional assay came out at 0.341. In experiment [2] (setting [5]), the Ranking score stood at 1037.91.
The molecule `C#C[C@]1(O)CC[C@H]2[C@@H]3CCC4=CCCC[C@@H]4[C@H]3CC[C@@]21C` [Lynestrenol] displayed a B-score binding assay in experiment [1] (setting [3]) of 0.007. Moreover, the B-score functional assay in experiment [2] (setting [4]) stood at 2.662. In addition, the Ranking score in experiment [2] (setting [5]) is listed as 897.58.
`C[C@H]1c2cccc(O)c2C(=O)C2=C(O)[C@]3(O)C(=O)C(C(N)=O)=C(O)[C@@H](N(C)C)[C@@H]3[C@@H](O)[C@@H]21` [Doxycycline hydrochloride] displayed a B-score binding assay in experiment [1] (setting [6]) of -1.041. Also, the Ranking score in experiment [2] (setting [7]) is 380.385. Further, the B-score functional assay in experiment [2] (setting [8]) is recorded as -0.015.
Take `CCN(CC)CCNC(=O)c1cc(S(C)(=O)=O)ccc1OC` [Tiapride hydrochloride]: the B-score binding assay in experiment [1] (setting [3]) worked out at 0.4. In experiment [2] (setting [4]), the B-score functional assay turned out to be 1.625. In experiment [2] (setting [5]), the Ranking score was determined as 1010.78.
As for `Cc1nnc(SCC2=C(C(=O)O)N3C(=O)[C@@H](NC(=O)Cn4cnnn4)[C@H]3SC2)s1` [Cefazolin sodium salt], the B-score binding assay in experiment [1] (setting [9]) stood at 0.04. Also, the B-score functional assay in experiment [2] (setting [10]) came out at 0.093. This molecule also gave a Ranking score in experiment [2] (setting [11]) of 718.895.
Taken in the same sequence, the figures for `C[C@@]12N[C@@H](Cc3ccccc31)c1ccccc12.O=C(O)/C=C\C(=O)O` [(-)-MK 801 hydrogen maleate] were 0.115, -0.004 and 690.814.
For `Cc1nc2ccc(CN(C)c3ccc(C(=O)N[C@@H](CCC(=O)O)C(=O)O)s3)cc2c(=O)[nH]1` [Raltitrexed], the B-score binding assay in experiment [1] (setting [6]) is reported as 0.04. Further, the Ranking score in experiment [2] (setting [7]) came to 413.367. Further, the B-score functional assay in experiment [2] (setting [8]) is listed as -1.033.
For the molecule `CC(CCc1ccc(O)cc1)NCCc1ccc(O)c(O)c1` (stereo not drawn) [Dobutamine hydrochloride], the B-score binding assay in experiment [1] (setting [9]) turned out to be 1.051. This molecule also gave a B-score functional assay in experiment [2] (setting [10]) of -0.038. Besides, the Ranking score in experiment [2] (setting [11]) was 789.916.
In the case of `CCC1(c2ccccc2)NC(=O)N(C)C1=O` (stereo not drawn) [Mephenytoin], the B-score binding assay in experiment [1] (setting [9]) is listed as 0. This molecule yielded a B-score functional assay in experiment [2] (setting [10]) of 0.862. The Ranking score in experiment [2] (setting [11]) was 812.389.
In experiment [1] (setting [6]), `N[C@@H](Cc1cc(I)c(Oc2cc(I)c(O)c(I)c2)c(I)c1)C(=O)O` [Thyroxine (L)] came in with a B-score binding assay of -0.765. In addition, the Ranking score in experiment [2] (setting [7]) amounted to 435.061. This molecule registered a B-score functional assay in experiment [2] (setting [8]) of 0.005.
`CC1CC(OC(=O)c2ccccc2O)CC(C)(C)C1` (stereo not drawn) [Homosalate]: the B-score binding assay in experiment [1] (setting [9]) came out at 0.177. The B-score functional assay in experiment [2] (setting [10]) stood at 0.284. Also, the Ranking score in experiment [2] (setting [11]) worked out at 811.615.
In turn, `CN1[C@@H]2CC[C@H]1C[C@@H](OC1c3ccccc3CCc3ccccc31)C2.O=C(O)CC(O)(CC(=O)O)C(=O)O` [Deptropine citrate] displayed a B-score binding assay in experiment [1] (setting [3]) of 0.633. The B-score functional assay in experiment [2] (setting [4]) is listed as 0.947. Besides, in experiment [2] (setting [5]), the Ranking score is listed as 1000.12.
With `CCC1(c2ccccc2)C(=O)NCNC1=O` [Primidone], in experiment [1] (setting [9]), the B-score binding assay is recorded as -0.009. Besides, the B-score functional assay in experiment [2] (setting [10]) is given as 1.471. In experiment [2] (setting [11]), this molecule displayed a Ranking score of 845.018.
In experiment [1] (setting [3]), `C[C@H]1[C@H](NC(=O)/C(=N\OC(C)(C)C(=O)O)c2csc(N)n2)C(=O)N1S(=O)(=O)O` [Aztreonam] yielded a B-score binding assay of 0.858. This molecule gave a B-score functional assay in experiment [2] (setting [4]) of 1.332. For the same molecule, the Ranking score in experiment [2] (setting [5]) is 1061.36.
With `CCn1cc(C(=O)O)c(=O)c2cc(F)c(N3CCNCC3)cc21` [Norfloxacin], the B-score binding assay in experiment [1] (setting [9]) amounted to 2.084. Moreover, the B-score functional assay in experiment [2] (setting [10]) is reported as -0.135. The same molecule yielded a Ranking score in experiment [2] (setting [11]) of 788.093.
As for `CN1CCN(CCCN2c3ccccc3Sc3ccc(C(F)(F)F)cc32)CC1` [Trifluoperazine dihydrochloride], the B-score binding assay in experiment [1] (setting [9]) is on record as -0.002. The B-score functional assay in experiment [2] (setting [10]) is reported as 0.212. In addition, in experiment [2] (setting [11]), the Ranking score was found to be 714.92.
In experiment [1] (setting [6]), `Nc1ccc(S(=O)(=O)Nc2ccccn2)cc1` [Sulfapyridine] returned a B-score binding assay of -1.889. Also, the Ranking score in experiment [2] (setting [7]) is 331.804. The molecule further had a B-score functional assay in experiment [2] (setting [8]) of 0.557.
In experiment [1] (setting [6]), `CC[N+](C)(C)c1cccc(O)c1` [Edrophonium chloride] yielded a B-score binding assay of 0.083. Further, the Ranking score in experiment [2] (setting [7]) stood at 420.888. Besides, in experiment [2] (setting [8]), the B-score functional assay is on record as -1.061.
Taken in the same sequence, the figures for `CC(C(=O)O)c1ccc2c(c1)[nH]c1ccc(Cl)cc12` (stereo not drawn) [Carprofen] were 0.048, 288.205 and -2.152.
For `C(#CCN1CCCC1)CN1CCCC1.Cl.Cl` [Tremorine dihydrochloride], in that order: 1.525, 382.832 and -2.034.
`CC(Cc1ccccc1)NCCC(c1ccccc1)c1ccccc1` (stereo not drawn) [Prenylamine lactate] yielded a B-score binding assay in experiment [1] (setting [3]) of 0.388. In experiment [2] (setting [4]), the B-score functional assay was 1.102. For the same molecule, the Ranking score in experiment [2] (setting [5]) is 975.256.
Molecule `O=C1CN(/N=C/c2ccc(-c3ccc([N+](=O)[O-])cc3)o2)C(=O)[N-]1.[Na+]` [Dantrolene sodium salt] came in with a B-score binding assay in experiment [1] (setting [6]) of -1.319. Further, in experiment [2] (setting [7]), the Ranking score amounted to 342.783. In addition, the B-score functional assay in experiment [2] (setting [8]) is -0.011.
Take `CNC(C)CCC=C(C)C.CNC(C)CCC=C(C)C.O=C(O)[C@@H](O)[C@H](O)[C@H](O)[C@@H](O)C(=O)O` [Isometheptene mucate]: the B-score binding assay in experiment [1] (setting [6]) is on record as -0.672. Besides, the Ranking score in experiment [2] (setting [7]) is listed as 319.923. Besides, the B-score functional assay in experiment [2] (setting [8]) is -0.726.
For `C=C(C)[C@@H]1[C@H]2OC(=O)[C@@H]1[C@]1(O)C[C@H]3O[C@]34C(=O)O[C@H]2[C@]14C` [Picrotoxinin], in experiment [1] (setting [9]), the B-score binding assay is listed as 0.17. In addition, in experiment [2] (setting [10]), the B-score functional assay is on record as 0.075. For the same molecule, the Ranking score in experiment [2] (setting [11]) is recorded as 754.999.
`CCN(CC)CCOC(=O)c1ccc(N)cc1` [Procaine hydrochloride]: the B-score binding assay in experiment [1] (setting [6]) came to 0.574. In experiment [2] (setting [7]), the Ranking score was found to be 459.439. The B-score functional assay in experiment [2] (setting [8]) is recorded as -1.181.
In experiment [1] (setting [9]), `C#C[C@]1(O)CC[C@H]2[C@@H]3CCC4=C(CCC(=O)C4)[C@H]3CC[C@@]21C` [Norethynodrel] had a B-score binding assay of 0.121. In experiment [2] (setting [10]), this molecule showed a B-score functional assay of 0.092. Moreover, the Ranking score in experiment [2] (setting [11]) was found to be 749.492.
